A short description of this data set: on-resin lactamisation, Asp side-chain COOH (C-terminal residue, anchored via Rink amide) + alpha-NH2 of N-terminal Dap(Boc); HATU/DIEA 1.05:2.1 equiv, overnight; then TFA cleavage. Conditions: 22-membered ring, NMP, 57.0 mM; for ring closure, product found: scale: 1 = cyclic product is largest ESI-MS signal, 0 = linear; for ring closure, conversion by HPLC: scale: % crude HPLC purity, 320 nm area of tallest peak or peak cluster.

The mark [1] stands for this setting: from CC(C)(C)OC(=O)NC[C@H](N)C(=O)N[C@@H](CNC(=O)c1cnc2ccccc2n1)C(=O)N[C@@H](CNC(=O)c1cnc2ccccc2n1)C(=O)NCC(=O)NCC(=O)NCC(=O)N[C@@H](CC(=O)O)C(N)=O.
Where [2] appears, read: from CC(C)(C)OC(=O)NC[C@H](N)C(=O)N[C@@H](CNC(=O)c1cnc2ccccc2n1)C(=O)N[C@@H](CNC(=O)c1cnc2ccccc2n1)C(=O)N[C@@H](CNC(=O)c1cnc2ccccc2n1)C(=O)NCC(=O)NCC(=O)N[C@@H](CC(=O)O)C(N)=O.
The mark [3] stands for this setting: from CC(C)(C)OC(=O)NC[C@H](N)C(=O)N[C@@H](CNC(=O)c1cnc2ccccc2n1)C(=O)N[C@@H](CNC(=O)c1cnc2ccccc2n1)C(=O)NCC(=O)NCC(=O)N[C@@H](CNC(=O)c1cnc2ccccc2n1)C(=O)N[C@@H](CC(=O)O)C(N)=O.
Setting [4] is: from CC(C)(C)OC(=O)NC[C@H](N)C(=O)NCC(=O)NCC(=O)N[C@@H](CNC(=O)c1cnc2ccccc2n1)C(=O)NCC(=O)NCC(=O)N[C@@H](CC(=O)O)C(N)=O.
Where [5] appears, read: from CC(C)(C)OC(=O)NC[C@H](N)C(=O)N[C@@H](CNC(=O)c1cnc2ccccc2n1)C(=O)NCC(=O)NCC(=O)N[C@@H](CNC(=O)c1cnc2ccccc2n1)C(=O)N[C@@H](CNC(=O)c1cnc2ccccc2n1)C(=O)N[C@@H](CC(=O)O)C(N)=O.
Where [6] appears, read: from CC(C)(C)OC(=O)NC[C@H](N)C(=O)NCC(=O)N[C@@H](CNC(=O)c1cnc2ccccc2n1)C(=O)NCC(=O)N[C@@H](CNC(=O)c1cnc2ccccc2n1)C(=O)NCC(=O)N[C@@H](CC(=O)O)C(N)=O.
The mark [7] stands for this setting: from CC(C)(C)OC(=O)NC[C@H](N)C(=O)N[C@@H](CNC(=O)c1cnc2ccccc2n1)C(=O)NCC(=O)N[C@@H](CNC(=O)c1cnc2ccccc2n1)C(=O)N[C@@H](CNC(=O)c1cnc2ccccc2n1)C(=O)NCC(=O)N[C@@H](CC(=O)O)C(N)=O.
Where [8] appears, read: from CC(C)(C)OC(=O)NC[C@H](N)C(=O)NCC(=O)NCC(=O)NCC(=O)N[C@@H](CNC(=O)c1cnc2ccccc2n1)C(=O)N[C@@H](CNC(=O)c1cnc2ccccc2n1)C(=O)N[C@@H](CC(=O)O)C(N)=O.
The mark [9] stands for this setting: from CC(C)(C)OC(=O)NC[C@H](N)C(=O)NCC(=O)NCC(=O)N[C@@H](CNC(=O)c1cnc2ccccc2n1)C(=O)N[C@@H](CNC(=O)c1cnc2ccccc2n1)C(=O)N[C@@H](CNC(=O)c1cnc2ccccc2n1)C(=O)N[C@@H](CC(=O)O)C(N)=O.
The mark [10] stands for this setting: from CC(C)(C)OC(=O)NC[C@H](N)C(=O)NCC(=O)N[C@@H](CNC(=O)c1cnc2ccccc2n1)C(=O)NCC(=O)NCC(=O)N[C@@H](CNC(=O)c1cnc2ccccc2n1)C(=O)N[C@@H](CC(=O)O)C(N)=O.
The mark [11] stands for this setting: from CC(C)(C)OC(=O)NC[C@H](N)C(=O)N[C@@H](CNC(=O)c1cnc2ccccc2n1)C(=O)NCC(=O)NCC(=O)NCC(=O)N[C@@H](CNC(=O)c1cnc2ccccc2n1)C(=O)N[C@@H](CC(=O)O)C(N)=O.

Our source for the ring closure, product found and ring closure, conversion by HPLC values is paper PMC6208650.

Consider `NC[C@@H]1NC(=O)C[C@@H](C(N)=O)NC(=O)CNC(=O)CNC(=O)CNC(=O)[C@H](CNC(=O)c2cnc3ccccc3n2)NC(=O)[C@H](CNC(=O)c2cnc3ccccc3n2)NC1=O`, for which, under setting [1], the ring closure, product found came to 1 and the ring closure, conversion by HPLC came out at 35.

In the case of `NC[C@@H]1NC(=O)C[C@@H](C(N)=O)NC(=O)CNC(=O)CNC(=O)[C@H](CNC(=O)c2cnc3ccccc3n2)NC(=O)[C@H](CNC(=O)c2cnc3ccccc3n2)NC(=O)[C@H](CNC(=O)c2cnc3ccccc3n2)NC1=O`, under setting [2], the ring closure, product found is 1 and the ring closure, conversion by HPLC worked out at 25.

In the case of `NC[C@@H]1NC(=O)C[C@@H](C(N)=O)NC(=O)[C@H](CNC(=O)c2cnc3ccccc3n2)NC(=O)CNC(=O)CNC(=O)[C@H](CNC(=O)c2cnc3ccccc3n2)NC(=O)[C@H](CNC(=O)c2cnc3ccccc3n2)NC1=O`, under setting [3], the ring closure, product found amounted to 1 and the ring closure, conversion by HPLC stood at 48.

As for `NC[C@@H]1NC(=O)C[C@@H](C(N)=O)NC(=O)CNC(=O)CNC(=O)[C@H](CNC(=O)c2cnc3ccccc3n2)NC(=O)CNC(=O)CNC1=O` [H-Dap(Boc)-Gly-Gly-Dap(Qxc)-Gly-Gly-Asp(OH)-NH-Rink resin], under setting [4], the ring closure, product found came out at 1 and the ring closure, conversion by HPLC is 84.

Consider `NC[C@@H]1NC(=O)C[C@@H](C(N)=O)NC(=O)[C@H](CNC(=O)c2cnc3ccccc3n2)NC(=O)[C@H](CNC(=O)c2cnc3ccccc3n2)NC(=O)CNC(=O)CNC(=O)[C@H](CNC(=O)c2cnc3ccccc3n2)NC1=O`, for which, under setting [5], the ring closure, product found was 0 and the ring closure, conversion by HPLC was less than 30.

`NC[C@@H]1NC(=O)C[C@@H](C(N)=O)NC(=O)CNC(=O)[C@H](CNC(=O)c2cnc3ccccc3n2)NC(=O)CNC(=O)[C@H](CNC(=O)c2cnc3ccccc3n2)NC(=O)CNC1=O`: under setting [6], the ring closure, product found turned out to be 1 and the ring closure, conversion by HPLC is 79.

Consider `NC[C@@H]1NC(=O)C[C@@H](C(N)=O)NC(=O)CNC(=O)[C@H](CNC(=O)c2cnc3ccccc3n2)NC(=O)[C@H](CNC(=O)c2cnc3ccccc3n2)NC(=O)CNC(=O)[C@H](CNC(=O)c2cnc3ccccc3n2)NC1=O`, for which, under setting [7], the ring closure, product found came to 1 and the ring closure, conversion by HPLC stood at 81.

As to `NC[C@@H]1NC(=O)C[C@@H](C(N)=O)NC(=O)[C@H](CNC(=O)c2cnc3ccccc3n2)NC(=O)[C@H](CNC(=O)c2cnc3ccccc3n2)NC(=O)CNC(=O)CNC(=O)CNC1=O`, under setting [8], the ring closure, product found was 1 and the ring closure, conversion by HPLC amounted to 75.

In the case of `NC[C@@H]1NC(=O)C[C@@H](C(N)=O)NC(=O)[C@H](CNC(=O)c2cnc3ccccc3n2)NC(=O)[C@H](CNC(=O)c2cnc3ccccc3n2)NC(=O)[C@H](CNC(=O)c2cnc3ccccc3n2)NC(=O)CNC(=O)CNC1=O`, under setting [9], the ring closure, product found stood at 0 and the ring closure, conversion by HPLC is less than 48.

Take `NC[C@@H]1NC(=O)C[C@@H](C(N)=O)NC(=O)[C@H](CNC(=O)c2cnc3ccccc3n2)NC(=O)CNC(=O)CNC(=O)[C@H](CNC(=O)c2cnc3ccccc3n2)NC(=O)CNC1=O`: under setting [10], the ring closure, product found stood at 1 and the ring closure, conversion by HPLC is 56.

Regarding `NC[C@@H]1NC(=O)C[C@@H](C(N)=O)NC(=O)[C@H](CNC(=O)c2cnc3ccccc3n2)NC(=O)CNC(=O)CNC(=O)CNC(=O)[C@H](CNC(=O)c2cnc3ccccc3n2)NC1=O`, under setting [11], the ring closure, product found came out at 1 and the ring closure, conversion by HPLC is 64.
